Read-outs that look alike come from different tables or passages of the source.
Legend:
[1] = tested on: Delayed-Type Hypersensitivity (D.T.H.); experiment: Delayed-Type Hypersensitivity (D.T.H.) technique, cell-mediated immunopotentiating activity; format: in vivo
Description: Accordingly, they are useful as an immunopotentiating agent.

aminopeptidase B = target: T1, aminopeptidase B (Rattus norvegicus, UniProt O09175); experiment: Aminopeptidase B-inhibitory activity; format: biochemical; details: modification of the method of Hoppusu
T1 sequence (O09175 1-650): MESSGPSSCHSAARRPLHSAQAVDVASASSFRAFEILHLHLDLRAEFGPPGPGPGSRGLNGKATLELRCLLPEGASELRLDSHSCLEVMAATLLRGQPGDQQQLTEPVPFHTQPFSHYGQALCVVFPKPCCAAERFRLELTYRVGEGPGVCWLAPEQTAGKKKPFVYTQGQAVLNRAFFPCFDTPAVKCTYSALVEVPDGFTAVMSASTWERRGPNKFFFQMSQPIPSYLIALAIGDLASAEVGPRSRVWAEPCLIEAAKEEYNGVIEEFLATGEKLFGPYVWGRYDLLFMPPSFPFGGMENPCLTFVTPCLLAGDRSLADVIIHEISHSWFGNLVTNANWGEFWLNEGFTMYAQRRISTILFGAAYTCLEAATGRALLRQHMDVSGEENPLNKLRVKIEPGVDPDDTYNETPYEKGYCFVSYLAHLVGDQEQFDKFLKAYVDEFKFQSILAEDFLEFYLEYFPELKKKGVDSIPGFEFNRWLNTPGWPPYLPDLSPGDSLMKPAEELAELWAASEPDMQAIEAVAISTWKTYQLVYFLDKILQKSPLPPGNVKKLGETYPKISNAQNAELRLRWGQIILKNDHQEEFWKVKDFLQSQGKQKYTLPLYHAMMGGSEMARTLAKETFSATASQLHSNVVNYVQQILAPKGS
Method: The aminopeptidase B-inhibitory activities (IC50) described above were determined by a modification of the method of Hoppusu disclosed in the specification of U.S. Pat. No. 4,595,698.

[2] = background statement, see U.S. Pat. No. 4,595,698; cited from earlier work
[3] = background statement, see U.S. Pat. No. 4,595,698; cited from earlier work; remark: listed apart in the source

Compound | cell-mediated immunopotentiating activity [1] | cell-mediated immunopotentiating activity ([1]; listed as (Ia)) | IC50 (aminopeptidase B) | analgesic activity [2] | immunopotentiating activity [3]
N=C(N)NCCC[C@H](N)C(=O)C[C@H](Cc1ccccc1)C(=O)O [Substance (I"), epi-arphamenine A] | exhibit a cell-mediated immunopotentiating activity | – | – | – | –
N=C(N)NCCC[C@H](N)C(=O)C[C@@H](Cc1ccccc1)C(=O)O [Substance (I'), arphamenine A] | – | exhibit a cell-mediated immunopotentiating activity | 21.8 nM | – | –
N=C(N)NCCC[C@H](N)C(=O)C[C@@H](Cc1ccccc1)C(=O)O [naturally occuring arphamenine A, arphamenine A] | – | – | 15.6 nM | an analgesic activity | shows an immunopotentiating activity

From US4870207A, “Synthesis of arphamenine A” (Zaiden Hojin Biseibutsu Kagaku Kenkyu Kai, priority 1983, dated 1989)
